Assay results as given in paper PMC10313921, “A living ex vivo platform for functional, personalized brain cancer diagnosis” (Cell Reports Medicine, 2023).

Assays:
[1] = system: MS21 (low-passage patient-derived GBM line); assay: Drug screening of MS21 tumor foci on OBSCs; format: cell-based, human
Procedure, shortened: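 Drug effects on tumor foci grown on brain slices are quantified by bioluminescence three days after treatment, relative to untreated foci and day-one fluorescence. Efficacy versus slice toxicity is combined into a weighted drug sensitivity score.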

[2] = system: GBM8 (high-passage patient-derived GBM line); assay: Drug screening of GBM8 tumor foci on OBSCs; format: cell-based, human
Procedure, shortened: (§1)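 Bioluminescence viability readout, 3 d post-treatment, normalized to day-1 tumor fluorescence vs untreated; 6 drug concentrations or XRad, n = 4 foci per concentration. Drug sensitivity score sums weighted parameters comparing tumor kill with OBSC toxicity, ranging −100 to 100.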

[3] = system: U373KO (RAD18 knockout of U373WT via CRISPR); assay: Drug screening of U373KO tumor foci on OBSCs; format: cell-based, human; settings: U373 KO on OBSCs
Procedure, shortened: as §1

[4] = system: PDIPG (low-passage pediatric patient-derived line); assay: Drug screening of PDIPG tumor foci on OBSCs; format: cell-based, human
Procedure, shortened: as §1

[5] = system: LN229 (established GBM line); assay: Drug screening of LN229 tumor foci on OBSCs; format: cell-based, human
Procedure, shortened: as §1

[6] = system: PIS patient tumor tissue (intracranial sarcoma); assay: Drug screening of uncultured patient tumor tissue PIS on OBSCs; format: cell-based, human; settings: Homo sapiens; PIS on OBSCs; dose required to kill 90% of the tumor
Procedure, shortened: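 Uncultured patient tumour tissue, transduced with mCherry-FLuc lentivirus, engrafted on organotypic brain slice cultures (OBSCs); six drug concentrations or X-ray dosing given one day after seeding, n = 4 foci per concentration. Bioluminescence with luciferin read three days post-treatment, normalised to day one and untreated controls; drug sensitivity score combines weighted therapeutic-window parameters versus OBSC toxicity (−100 to 100).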

[7] = system: U373WT (wild-type established GBM line); assay: Drug screening of U373WT tumor foci on OBSCs; format: cell-based, human; settings: U373 WT on OBSCs
Procedure, shortened: as §1

[8] = system: MG-II patient tumor tissue (WHO grade II meningioma); assay: Drug screening of uncultured patient tumor tissue MG-II on OBSCs; format: cell-based; settings: Homo sapiens, dose required to kill 90% of the tumor
Method: Tumor cells were seeded onto OBSCs 2h after slicing as described above. One day after tumor seeding, six concentrations of each drug were diluted in the media underneath each culture insert, or XRad was applied using an X-Rad 320 Precision X-ray machine (n = 4 tumor foci per concentration; n ≥ 24 tumor foci per drug per cell line). Three days after treatment, the bioluminescence of live tumor cells was measured using an AMI optical imager (Spectral Instruments) and dose-response curves were generated. Tumor survival was normalized to day one tumor fluorescence and compared to an untreated control group.
To engraft onto OBSCs, the cryopreserved/thawed or fresh brain tumor tissue was filtered through a 100 μm cell strainer. Each 50 mg of tissue was transfected with 1mL mcherry-FLuc Lentivirus at 1.5e7 vg/ml with 1μL polybrene for 4h at 37°C. After incubation, the brain tumor tissue was washed with PBS three times to remove the residual virus and reconstituted in PBS with a final volume of 150 μL. Then the tissue solution was engrafted atop OBSCs at ∼0.5 mg tissue in 3 μL of PBS on each hemisphere of the slice. The OBSC engrafted with patient tumor tissue was incubated at 37°C with 5% CO2 and 95% humidity. The BSM was changed after 24h and subsequently every 3 days. Tumor treatment studies were executed as described above for tumor lines. The viability of the patient tissue was measured by an AMI optical imaging system with the addition of 1.5 mg/mL luciferin underneath the culture insert.
Several weighted parameters were factored into an overall drug sensitivity score.
For DSS parameters 1–6, therapeutic windows were calculated by comparing OBSC toxicity and tumor response at the doses where tumor kill passed through the DSS parameter (Table S1 and S3). For DSS parameter 7, the therapeutic window was calculated by comparing the slopes through the tumor EC50 and the OBSC tox EC50. For DSS parameter 8, the therapeutic window was calculated by comparing the areas under tumor kill and OBSC tox curves. Normalized therapeutic window ratios for DSS parameters 1–8 within each drug-tumor-OBSC interaction were calculated in the following manner: within each window, values ranged from +1 to −1, where values approaching +1 signify increasing tumor kill relative to normal tissue toxicity, and values approaching −1 indicate agents where tumors remained highly viable while toxicity to the normal OBSC tissue was elevated. DSS parameters 9–11 were determined based on the behavior of the tumor in response to the drug, as defined above.
All individually weighed parameters were added together to generate the DSS. Overall DSS from 0 to 100 signify increasing efficacy in tumor kill relative to OBSC toxicity, while scores from 0 to −100 describe scenarios in which tumors thrive more effectively than OBSCs for a given treatment. Dose-response values were calculated via linear interpolation of raw data, not from best-fit curve equations.

[9] = system: MB231Br (breast cancer metastasis to brain); assay: Drug screening of MB231Br tumor foci on OBSCs; format: cell-based, human
[10] = Homo sapiens, U373 MG, dose required to kill 50% of the tumor
[11] = Homo sapiens, U373 MG, dose required to kill 90% of the tumor
[12] = Homo sapiens, U373 MG, dosed day 1, survival via bioluminescence day 4, linear interpolation
[13] = area under the dose-response curve, trapezoidal rule
[14] = dose required to kill 10% of the tumor

`CC[C@]1(O)C[C@H]2CN(CCc3c([nH]c4ccccc34)[C@@](C(=O)OC)(c3cc4c(cc3OC)N(C=O)[C@H]3[C@@](O)(C(=O)OC)[C@H](OC(C)=O)[C@]5(CC)C=CCN6CC[C@]43[C@@H]65)C2)C1` [Vincristine] was tested, and the EC90 ([1]; Homo sapiens) was over 10 µM, the EC50 ([1]; Homo sapiens, MS21 on OBSCs, dose required to kill 50% of the tumor, read-out: EC50) was 4.6 µM and the IC50 ([1]; Homo sapiens, MS21 on OBSCs, dosed day 1, survival via bioluminescence day 4, linear interpolation, read-out: IC50) was 4.6 µM. The “Killing at highest dose” value ([1]; MS21 on OBSCs) was 5.30E-01 fraction of tumor population killed, the AUC ([1]; MS21 on OBSCs, area under the dose-response curve, trapezoidal rule) was 5.22E+00 and the EC10 ([1]; MS21 on OBSCs, dose required to kill 10% of the tumor) was 0.00526 µM. The EC25 ([1]; MS21 on OBSCs, dose required to kill 25% of the tumor) was 0.172 µM, the Slope ([1]; MS21 on OBSCs, slope through the EC50) was -5.56E-03 and the “Killing at highest dose” value ([2]; GBM8 on OBSCs) was 1.00E+00 fraction of tumor population killed. For the same molecule, the AUC ([2]; GBM8 on OBSCs, area under the dose-response curve, trapezoidal rule) was 2.38E-01, the EC10 ([2]; GBM8 on OBSCs, dose required to kill 10% of the tumor) was 0.00435 µM and the EC25 ([2]; GBM8 on OBSCs, dose required to kill 25% of the tumor) was 0.0129 µM. The EC75 ([2]; GBM8 on OBSCs, dose required to kill 75% of the tumor) was 0.0843 µM, the Slope ([2]; GBM8 on OBSCs, slope through the EC50) was -7.00E+00 and the EC90 ([2]; Homo sapiens) was 0.26 µM. The EC50 ([2]; Homo sapiens, GBM8 on OBSCs, dose required to kill 50% of the tumor, read-out: EC50) was 0.0486 µM, the IC50 ([2]; Homo sapiens, GBM8 on OBSCs, dosed day 1, survival via bioluminescence day 4, linear interpolation, read-out: IC50) was 0.05 µM and the EC50 [3, 10] was over 10 µM. For the same molecule, the EC90 [3, 11] was over 10 µM, the IC50 [3, 12] was over 10 µM and the “Killing at highest dose” value [3] was -7.40E-01 fraction of tumor population killed. It also gave an AUC [3, 13] of 1.89E+01, an EC90 ([4]; Homo sapiens) of over 10 µM and an EC50 ([4]; Homo sapiens, PDIPG on OBSCs, dose required to kill 50% of the tumor, read-out: EC50) of over 10 µM. For the same molecule, the IC50 ([4]; Homo sapiens, PDIPG on OBSCs, dosed day 1, survival via bioluminescence day 4, linear interpolation, read-out: IC50) was over 10 µM, the “Killing at highest dose” value ([4]; PDIPG on OBSCs) was 4.86E-01 fraction of tumor population killed and the AUC ([4]; PDIPG on OBSCs, area under the dose-response curve, trapezoidal rule) was 6.36E+00. The EC10 ([4]; PDIPG on OBSCs, dose required to kill 10% of the tumor) was 0.242 µM, the EC25 ([4]; PDIPG on OBSCs, dose required to kill 25% of the tumor) was 0.406 µM and the Slope ([4]; PDIPG on OBSCs, slope through the EC50) was -2.32E-02. The “Killing at highest dose” value [5] was 4.10E-01 fraction of tumor population killed, the EC50 ([5]; Homo sapiens, LN-229, dose required to kill 50% of the tumor) was over 10 µM and the EC90 ([5]; Homo sapiens, LN-229, dose required to kill 90% of the tumor) was over 10 µM. The IC50 ([5]; Homo sapiens, LN-229, dosed day 1, survival via bioluminescence day 4, linear interpolation) was over 10 µM, the AUC [5, 13] was 6.37E+00 and the EC10 [5, 14] was 0.00667 µM. It also gave an EC25 ([5]; dose required to kill 25% of the tumor) of 0.418 µM, a Slope ([5]; slope through the EC50) of -8.89E-03 and an EC90 [6] of over 10 µM. For the same molecule, the EC50 [7, 10] was over 10 µM, the EC90 [7, 11] was over 10 µM and the IC50 [7, 12] was over 10 µM. The “Killing at highest dose” value [7] was -6.60E-01 fraction of tumor population killed, the AUC [7, 13] was 1.36E+01 and the EC10 [7, 14] was 0.82 µM. The Slope ([7]; slope through the EC50) was 5.78E-02, the EC90 [8] was over 10 µM and the EC50 ([9]; Homo sapiens, MB231BR on OBSCs, dose required to kill 50% of the tumor) was over 10 µM. The EC90 ([9]; Homo sapiens, MB231BR on OBSCs, dose required to kill 90% of the tumor) was over 10 µM, the IC50 ([9]; Homo sapiens, MB231Br on OBSCs, dosed day 1, survival via bioluminescence day 4, linear interpolation) was over 10 µM and the “Killing at highest dose” value ([9]; MB231BR on OBSCs) was 7.00E-02 fraction of tumor population killed. For the same molecule, the AUC ([9]; MB231BR on OBSCs, area under the dose-response curve, trapezoidal rule) was 1.02E+01 and the Slope ([9]; MB231BR on OBSCs, slope through the EC50) was -1.89E-02.
